Consider one compound from patent US12240860B2, “Heterobicyclic carboxylic acids and salts thereof” (SHENZHEN IONOVA LIFE SCIENCE CO., LTD., priority 2018, dated 2025).

The data set is described as follows: DVS (Dynamic Vapor Sorption) moisture sorption/desorption. In kind it is physicochemical. Particulars: 25° C. The method, then:
DVS (Dynamic Vapor Sorption)
Around 20 mg of samples were used to test its moisture sorption/desorption profiles at 25° C. under 0%˜95%˜0% relative humidity (RH) cycle with the following parameters:
Equilibrium: dm/dt: 0.01%/min.
RH (%) measurement step scope: 0%95%0%; RH (%) measurement step: 5%

Turning to `Cc1sc2ccn(Cc3ccc(C(F)(F)F)cc3)c2c1C(=O)NC1(c2ccc(C(=O)O)cc2)CC1` [C003 free acid, 4-(1-{[2-Methyl-4-(4-trifluoromethyl-benzyl)-4H-thieno[3,2-b]pyrrole-3-carbonyl]-amino}-cyclopropyl)-benzoic acid], the “moisture at 80% RH (DVS)” value stood at 3.175%. Besides, the “Hygroscopicity Classification (DVS)” value (80% RH) is listed as “hygroscopic”.
